Measured values reported in ChEMBL document CHEMBL1154658, “Novel macrocyclic inhibitors of hepatitis C NS3/4A protease featuring a 2-amino-1,3-thiazole as a P4 carbamate replacement” (J Med Chem, 2009).

What was measured:
Hepatitis C virus [1] = experiment: Inhibition of HCV 1b NS3/4A protease by time-resolved fluorescence assay; parameters: species or system Hepatitis C virus subtype 1b
Hepatitis C virus [2] = experiment: Antiviral activity against HCV 1b infected in human Huh7 cells by bicistronic replicon RNA assay in presence of 10% fetal bovine serum; format: functional, organism-based, Hepacivirus hominis; conditions: genotype 1b, Huh-7
Hepatitis C virus [3] = experiment: Antiviral activity against HCV 1b infected in human Huh7 cells by bicistronic replicon RNA assay in presence of 50% normal human serum; format: functional, organism-based, Hepacivirus hominis; conditions: genotype 1b, Huh-7
[4] = AUC (0 to 4 hrs) in Sprague-Dawley rat at 5 mg/kg, po; format: ADME, organism-based, Plasma; parameters: time < 4 hr, dose 5 mg/kg, route oral; conditions: Sprague-Dawley, plasma
[5] = Drug level in Sprague-Dawley rat liver at 5 mg/kg, po after 4 hrs; format: ADME, organism-based; parameters: dose 5 mg/kg, route oral; conditions: read-out: Drug uptake
[6] = Oral bioavailability in Sprague-Dawley rat at 5 mg/kg; format: ADME, organism-based; conditions: in vivo
[7] = Drug level in Sprague-Dawley rat liver at 4 mg/kg, po after 4 hrs; format: ADME, organism-based; parameters: dose 4 mg/kg, route oral; conditions: read-out: Drug uptake
[8] = Oral bioavailability in Sprague-Dawley rat at 4 mg/kg; format: ADME, organism-based; conditions: in vivo
Rattus norvegicus [9] = experiment: (§1) Plasma clearance in Sprague-Dawley rat at 4 mg/kg, po; format: ADME, organism-based; parameters: dose 4 mg/kg, route oral; conditions: in vivo
Rattus norvegicus [10] = experiment: (§2) AUC (0 to 4 hrs) in Sprague-Dawley rat at 4 mg/kg, po; format: ADME, organism-based, Plasma; parameters: time < 4 hr, dose 4 mg/kg, route oral; conditions: in vivo, 4 h
[11] = as §1; format: ADME, organism-based; parameters: dose 4 mg/kg, route oral; conditions: Sprague-Dawley, plasma
[12] = as §2; format: ADME, organism-based, Plasma; parameters: time < 4 hr, dose 4 mg/kg, route oral; conditions: Sprague-Dawley, plasma
[13] = Plasma clearance in Beagle dog at 2 mg/kg, iv; format: ADME, organism-based, Canis lupus familiaris; parameters: dose 2 mg/kg, route intravenous
[14] = AUC in Sprague-Dawley rat at 5 mg/kg, po; format: ADME, organism-based; parameters: dose 5 mg/kg, route oral; conditions: plasma
[15] = AUC in Sprague-Dawley rat at 10 mg/kg, po; format: ADME, organism-based; parameters: dose 10 mg/kg, route oral; conditions: plasma
[16] = AUC in Sprague-Dawley rat at 20 mg/kg, po; format: ADME, organism-based; parameters: dose 20 mg/kg, route oral; conditions: plasma
[17] = AUC in Sprague-Dawley rat at 30 mg/kg, po; format: ADME, organism-based; parameters: dose 30 mg/kg, route oral; conditions: plasma
[18] = AUC in Beagle dog at 2 mg/kg, iv; format: ADME, organism-based, Canis lupus familiaris; parameters: dose 2 mg/kg, route intravenous; conditions: plasma
[19] = AUC in Beagle dog at 5 mg/kg, po; format: ADME, organism-based, Canis lupus familiaris; parameters: dose 5 mg/kg, route oral; conditions: plasma
[20] = AUC in Beagle dog at 10 mg/kg, po; format: ADME, organism-based, Canis lupus familiaris; parameters: dose 10 mg/kg, route oral; conditions: plasma
[21] = Cmax in Sprague-Dawley rat at 5 mg/kg, po; format: ADME, organism-based; parameters: dose 5 mg/kg, route oral; conditions: in vivo
[22] = Cmax in Sprague-Dawley rat at 10 mg/kg, po; format: ADME, organism-based; parameters: dose 10 mg/kg, route oral; conditions: in vivo
[23] = Cmax in Sprague-Dawley rat at 20 mg/kg, po; format: ADME, organism-based; parameters: dose 20 mg/kg, route oral; conditions: in vivo
[24] = Cmax in Sprague-Dawley rat at 30 mg/kg, po; format: ADME, organism-based; parameters: dose 30 mg/kg, route oral; conditions: in vivo
[25] = Cmax in Beagle dog at 2 mg/kg, iv; format: ADME, organism-based, Canis lupus familiaris; parameters: dose 2 mg/kg, route intravenous; conditions: in vivo
[26] = Cmax in Beagle dog at 5 mg/kg, po; format: ADME, organism-based, Canis lupus familiaris; parameters: dose 5 mg/kg, route oral; conditions: in vivo
[27] = Cmax in Beagle dog at 10 mg/kg, po; format: ADME, organism-based, Canis lupus familiaris; parameters: dose 10 mg/kg, route oral; conditions: in vivo
[28] = Bioavailability in Beagle dog at 2 mg/kg, iv; format: ADME, organism-based, Canis lupus familiaris; conditions: in vivo
[29] = Drug level in Sprague-Dawley rat liver at 5 mg/kg, po after 24 hrs; format: ADME, organism-based; parameters: dose 5 mg/kg, route oral; conditions: read-out: Drug uptake
[30] = Drug level in Sprague-Dawley rat liver at 20 mg/kg, po after 24 hrs; format: ADME, organism-based; parameters: dose 20 mg/kg, route oral; conditions: read-out: Drug uptake
[31] = Drug level in Sprague-Dawley rat liver at 30 mg/kg, po after 24 hrs; format: ADME, organism-based; parameters: dose 30 mg/kg, route oral; conditions: read-out: Drug uptake

Structure (SMILES)	Ki (Hepatitis C virus [1]) [nM]	EC50 (Hepatitis C virus [2]) [nM]	EC50 (Hepatitis C virus [3]) [nM]	AUC(0-t) at 4 h [4] [µM·h]	concentration at 4 h [5] [nM]	other results
C=C[C@@H]1C[C@]1(NC(=O)[C@@H]1C[C@@H]2CN1C(=O)[C@H](C(C)C)Nc1nc(cs1)CCCCc1ccc3ccnc(c3c1)O2)C(=O)NS(=O)(=O)C1CC1.O=C(O)C(F)(F)F	1.7	60	920	9.9	5500	bioavailability [6]: 60%
C=C[C@@H]1C[C@]1(NC(=O)[C@@H]1C[C@@H]2CN1C(=O)[C@H](C1CCCCC1)Nc1nc(cs1)CCC/C=C/c1cccc3c1CN(C3)C(=O)O2)C(=O)NS(=O)(=O)C1CC1.O=C(O)C(F)(F)F	0.04	3	16			concentration at 4 h [7]: 350 nM; bioavailability [8]: 8%; CL (Rattus norvegicus [9]): 17 mL/min/kg; AUC (Rattus norvegicus [10]): 0.4 µM·h
C=C[C@@H]1C[C@]1(NC(=O)[C@@H]1C[C@@H]2CN1C(=O)[C@H](C(C)(C)C)Nc1nc(cs1)CCCCc1ccc3ccnc(c3c1)O2)C(=O)NS(=O)(=O)C1CC1.O=C(O)C(F)(F)F	0.2	20	130	0.1	1000	
C=C[C@@H]1C[C@]1(NC(=O)[C@@H]1C[C@@H]2CN1C(=O)[C@H](C(C)C)Nc1nc(cs1)CCCCc1ccc3nc(-c4ccccc4)cc(c3c1)O2)C(=O)NS(=O)(=O)C1CC1.O=C(O)C(F)(F)F	0.5	40	390	< 0.01	< 10	
C=C[C@@H]1C[C@]1(NC(=O)[C@@H]1C[C@@H]2CN1C(=O)[C@H](C1CCCC1)Nc1nc(cs1)CCC/C=C/c1cccc3c1CN(C3)C(=O)O2)C(=O)NS(=O)(=O)C1CC1.O=C(O)C(F)(F)F	0.08	2	16			concentration at 4 h [7]: 180 nM; EC90 (Hepatitis C virus [2]): 3 nM; EC90 (Hepatitis C virus [3]): 34 nM; bioavailability [8]: 36%; CL/F [11]: 25 mL/min/kg; AUC(0-t) at 4 h [12]: 0.7 µM·h
C=C[C@@H]1C[C@]1(NC(=O)[C@@H]1C[C@@H]2CN1C(=O)[C@H]([C@@H](C)CC)Nc1nc(cs1)CCC/C=C/c1cccc3c1CN(C3)C(=O)O2)C(=O)[N-]S(=O)(=O)C1CC1.[K+]						clearance [13]: 38 mL/min/kg; AUC [14]: 1.7 µM·h; AUC [15]: 2.5 µM·h; AUC [16]: 13.3 µM·h; AUC [17]: 21 µM·h; AUC [18]: 0.2 µM·h; AUC [19]: 0.5 µM·h; AUC [20]: 10 µM·h; Cmax [21]: 500 nM; Cmax [22]: 1400 nM; Cmax [23]: 5900 nM; Cmax [24]: 8000 nM; Cmax [25]: 60 nM; Cmax [26]: 1160 nM; Cmax [27]: 4000 nM; bioavailability [6]: 26%; bioavailability [28]: 17%; concentration at 24 h [29]: 10 nM; concentration at 24 h [30]: 40 nM; concentration at 24 h [31]: 60 nM
C=C[C@@H]1C[C@]1(NC(=O)[C@@H]1C[C@@H]2CN1C(=O)[C@H](C1CCCCC1)Nc1nc(cs1)CCCCc1ccc3ccnc(c3c1)O2)C(=O)NS(=O)(=O)C1CC1.O=C(O)C(F)(F)F	1.3	30	350	4.7	3400	
C=C[C@@H]1C[C@]1(NC(=O)[C@@H]1C[C@@H]2CN1C(=O)[C@H](C(C)C)Nc1nc(cs1)CC/C=C/c1ccc3ccnc(c3c1)O2)C(=O)NS(=O)(=O)C1CC1.O=C(O)C(F)(F)F	5	30	730	0.9	2400	
C=C[C@@H]1C[C@]1(NC(=O)[C@@H]1C[C@@H]2CN1C(=O)[C@H](C(C)C)Nc1nc(cs1)CCCCCc1ccc3ccnc(c3c1)O2)C(=O)NS(=O)(=O)C1CC1	1.5	120	830			
